These results are taken from US10168342B2, “Lipid probes and uses thereof” (THE SCRIPPS RESEARCH INSTITUTE, priority 2015, dated 2019).

Series [1] has as its target T1, AEA-DA lipid probe targets in Neuro2a cells (Mus musculus, UniProt Q8BMK4).
T1 sequence (Q8BMK4 1-575): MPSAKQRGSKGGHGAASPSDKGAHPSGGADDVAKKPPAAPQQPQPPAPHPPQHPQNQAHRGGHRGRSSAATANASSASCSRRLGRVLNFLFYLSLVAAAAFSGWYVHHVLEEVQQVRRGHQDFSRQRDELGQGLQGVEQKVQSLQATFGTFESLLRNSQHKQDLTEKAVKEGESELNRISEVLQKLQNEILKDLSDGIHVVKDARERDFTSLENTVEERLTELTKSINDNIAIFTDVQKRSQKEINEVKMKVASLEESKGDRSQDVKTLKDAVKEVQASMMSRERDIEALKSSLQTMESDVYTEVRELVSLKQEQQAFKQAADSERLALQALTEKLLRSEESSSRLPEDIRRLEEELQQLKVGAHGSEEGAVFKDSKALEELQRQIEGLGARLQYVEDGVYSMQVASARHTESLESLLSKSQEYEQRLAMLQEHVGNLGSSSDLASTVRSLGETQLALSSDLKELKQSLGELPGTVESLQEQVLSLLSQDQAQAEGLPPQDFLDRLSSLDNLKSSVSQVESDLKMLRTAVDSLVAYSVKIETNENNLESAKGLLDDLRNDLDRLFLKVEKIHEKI

In series [2] the target is T2, AEA-DA lipid probe targets in Neuro2a cells (Mus musculus, UniProt Q8BTV1).
T2 sequence (Q8BTV1 42-347): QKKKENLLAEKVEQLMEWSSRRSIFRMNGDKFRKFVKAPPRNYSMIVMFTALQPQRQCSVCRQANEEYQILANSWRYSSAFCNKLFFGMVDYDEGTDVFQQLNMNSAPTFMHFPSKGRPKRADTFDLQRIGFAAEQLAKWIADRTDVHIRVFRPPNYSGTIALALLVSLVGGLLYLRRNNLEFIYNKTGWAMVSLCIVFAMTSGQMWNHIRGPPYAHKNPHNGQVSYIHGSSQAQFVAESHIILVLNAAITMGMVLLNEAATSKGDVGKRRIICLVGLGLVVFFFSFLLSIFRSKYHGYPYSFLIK

The target of series [3] is T3, AEA-DA lipid probe targets in Neuro2a cells (Mus musculus, UniProt Q60692).
T3 sequence (Q60692 1-238): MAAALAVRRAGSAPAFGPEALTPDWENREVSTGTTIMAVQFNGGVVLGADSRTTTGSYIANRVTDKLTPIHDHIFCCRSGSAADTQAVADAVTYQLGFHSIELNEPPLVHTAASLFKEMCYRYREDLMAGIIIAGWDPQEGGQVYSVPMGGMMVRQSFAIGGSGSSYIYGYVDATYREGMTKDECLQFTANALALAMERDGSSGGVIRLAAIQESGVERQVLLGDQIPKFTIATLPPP

The target of series [4] is T4, AEA-DA lipid probe targets in Neuro2a cells (Mus musculus, UniProt Q9CRD0).
T4 sequence (Q9CRD0 1-247): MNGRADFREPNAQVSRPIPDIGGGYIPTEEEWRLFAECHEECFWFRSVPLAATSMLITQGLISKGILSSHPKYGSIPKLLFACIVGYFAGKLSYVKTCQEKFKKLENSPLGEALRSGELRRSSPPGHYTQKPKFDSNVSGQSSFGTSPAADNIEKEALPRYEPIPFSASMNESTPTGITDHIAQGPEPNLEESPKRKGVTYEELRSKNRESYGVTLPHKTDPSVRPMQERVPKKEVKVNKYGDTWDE

Series [5] has as its target T5, AEA-DA lipid probe targets in Neuro2a cells (Mus musculus, UniProt Q61009).
T5 sequence (Q61009 1-509): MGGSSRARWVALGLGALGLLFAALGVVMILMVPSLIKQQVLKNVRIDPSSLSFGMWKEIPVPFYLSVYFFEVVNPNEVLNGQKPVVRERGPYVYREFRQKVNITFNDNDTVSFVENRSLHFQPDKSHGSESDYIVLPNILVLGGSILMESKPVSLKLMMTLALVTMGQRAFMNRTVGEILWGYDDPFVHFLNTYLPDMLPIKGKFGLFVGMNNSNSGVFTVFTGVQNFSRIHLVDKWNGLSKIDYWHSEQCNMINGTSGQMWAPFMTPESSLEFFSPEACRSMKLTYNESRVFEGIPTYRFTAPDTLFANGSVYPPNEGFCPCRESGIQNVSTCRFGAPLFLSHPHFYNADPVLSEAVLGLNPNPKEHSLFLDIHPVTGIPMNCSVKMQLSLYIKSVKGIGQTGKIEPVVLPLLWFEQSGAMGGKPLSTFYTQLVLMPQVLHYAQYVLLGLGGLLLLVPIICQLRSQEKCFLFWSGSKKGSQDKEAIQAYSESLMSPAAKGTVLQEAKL

For series [6], the target named is T6, AEA-DA lipid probe targets in Neuro2a cells (Mus musculus, UniProt Q9CQM2).
T6 sequence (Q9CQM2 1-212): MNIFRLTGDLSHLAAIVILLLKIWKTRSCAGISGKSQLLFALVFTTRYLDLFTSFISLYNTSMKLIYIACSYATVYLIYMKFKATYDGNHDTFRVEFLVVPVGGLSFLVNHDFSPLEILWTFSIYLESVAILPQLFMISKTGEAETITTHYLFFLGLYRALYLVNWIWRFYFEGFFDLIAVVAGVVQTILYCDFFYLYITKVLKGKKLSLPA

The target in series [7] is T7, AEA-DA lipid probe targets in Neuro2a cells (Mus musculus, UniProt Q8BKE6).
T7 sequence (Q8BKE6 1-462): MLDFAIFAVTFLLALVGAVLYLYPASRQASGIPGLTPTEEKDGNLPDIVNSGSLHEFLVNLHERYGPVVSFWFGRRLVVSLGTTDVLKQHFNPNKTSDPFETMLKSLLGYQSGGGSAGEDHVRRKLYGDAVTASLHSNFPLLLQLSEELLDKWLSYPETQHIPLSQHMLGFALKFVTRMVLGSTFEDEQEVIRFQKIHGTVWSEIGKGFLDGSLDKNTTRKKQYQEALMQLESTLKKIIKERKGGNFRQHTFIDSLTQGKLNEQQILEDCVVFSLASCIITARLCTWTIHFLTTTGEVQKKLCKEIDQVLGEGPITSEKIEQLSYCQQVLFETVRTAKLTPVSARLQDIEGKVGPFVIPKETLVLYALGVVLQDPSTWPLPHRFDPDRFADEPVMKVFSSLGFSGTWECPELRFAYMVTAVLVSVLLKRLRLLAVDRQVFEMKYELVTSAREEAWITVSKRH

Where two headings read alike, the source gives them in different places.

Take `CCCCC/C=C\C/C=C\C/C=C\C/C=C\CCCC(=O)NCCO` [AEA, anandamide, reference compound]: in series [1] (competitor 200 μM), the “SILAC ratio, Ckap4” value was determined as 2.0. Also, the “SILAC ratio, Tusc3” value in series [2] (competitor 200 μM) came out at 1.7. Besides, the “SILAC ratio Psmb6” value in series [3] (competitor 200 μM) was 1.4. Further, the “SILAC ratio Ociad1” value in series [4] (competitor 200 μM) is 1.6. Besides, in series [5] (competitor 200 μM), the “SILAC ratio, Scarb1” value turned out to be 1.6. The “SILAC ratio, Kdelr2” value in series [6] (competitor 200 μM) is 1.4.
On to `C=CCN(C)CCCCCCOc1ccc(C(=O)c2ccc(Br)cc2)c(F)c1` [Ro 48-8071, reference compound], for which the “SILAC ratio, Ckap4” value in series [1] (competitor 25 μM) is on record as 1.1. Also, in series [2] (competitor 25 μM), the “SILAC ratio, Tusc3” value stood at 1.2. Further, the “SILAC ratio Psmb6” value in series [3] (competitor 25 μM) turned out to be 1.0. The “SILAC ratio Ociad1” value in series [4] (competitor 25 μM) was determined as 1.0. In series [5] (competitor 25 μM), the “SILAC ratio, Scarb1” value is recorded as 2.9. For the same compound, the “SILAC ratio, Kdelr2” value in series [6] (competitor 25 μM) is 0.9. The “SILAC ratio, Cyp20a1” value in series [7] (competitor 25 μM) is recorded as 1.1.
On to `CN1CCN(C(=O)c2c(-c3ccccc3)c3cc([N+](=O)[O-])ccc3n2C)CC1` [KML110, (1-Methyl-5-nitro-3-phenyl-1H-indol-2-yl)(4-methylpiperazin-1-yl)methanone], for which the “SILAC ratio, Ckap4” value in series [1] (competitor 25 μM) was 1.4. In addition, the “SILAC ratio, Tusc3” value in series [2] (competitor 25 μM) is listed as 1.6. The “SILAC ratio Psmb6” value in series [3] (competitor 25 μM) was determined as 1.9. Moreover, the “SILAC ratio Ociad1” value in series [4] (competitor 25 μM) is 1.3. The “SILAC ratio, Scarb1” value in series [5] (competitor 25 μM) is 2.8. In addition, the “SILAC ratio, Kdelr2” value in series [6] (competitor 25 μM) amounted to 1.3. Moreover, the “SILAC ratio, Cyp20a1” value in series [7] (competitor 25 μM) is 1.4.
In the case of `O=C(/C=C/c1cccnc1)NCCCCC1CCN(C(=O)c2ccccc2)CC1` [FK-866, reference compound], in series [1] (competitor 25 μM), the “SILAC ratio, Ckap4” value was determined as 1.1. Besides, the “SILAC ratio, Tusc3” value in series [2] (competitor 25 μM) came out at 1.3. Also, the “SILAC ratio Psmb6” value in series [3] (competitor 25 μM) is on record as 1.4. Besides, in series [4] (competitor 25 μM), the “SILAC ratio Ociad1” value turned out to be 1.1. Further, the “SILAC ratio, Scarb1” value in series [5] (competitor 25 μM) was determined as 2.3. In addition, in series [6] (competitor 25 μM), the “SILAC ratio, Kdelr2” value was 1.2. Also, the “SILAC ratio, Cyp20a1” value in series [7] (competitor 25 μM) turned out to be 1.1.
For the compound `CN1CCN(C(=O)c2[nH]c3ccc([N+](=O)[O-])cc3c2-c2ccccc2)CC1` [MJN228, (4-Methylpiperazin-1-yl)(5-nitro-3-phenyl-1H-indol-2-yl)methanone], the “SILAC ratio, Ckap4” value in series [1] (competitor 10 μM) is 1.3; in series [1] (competitor 25 μM), 1.4; in series [1] (competitor 50 μM), 1.3; in series [1] (competitor 100 μM), 1.8. The “SILAC ratio, Tusc3” value is reported as 1.2 in series [2] (competitor 10 μM), 1.6 in series [2] (competitor 25 μM), 1.6 in series [2] (competitor 50 μM) and 2.6 in series [2] (competitor 100 μM). The “SILAC ratio Psmb6” value in series [3] (competitor 10 μM) amounted to 1.3; in series [3] (competitor 25 μM), 1.5; in series [3] (competitor 50 μM), 1.4; in series [3] (competitor 100 μM), 2.5. Further, the “SILAC ratio Ociad1” value in series [4] (competitor 10 μM) came out at 1.1; in series [4] (competitor 25 μM), 1.4; in series [4] (competitor 50 μM), 1.1; in series [4] (competitor 100 μM) it was 1.5. The “SILAC ratio, Scarb1” value in series [5] (competitor 10 μM) is given as 1.6; in series [5] (competitor 25 μM) it was 2.0; in series [5] (competitor 50 μM), 3.2; in series [5] (competitor 100 μM) it was 4.9. Moreover, the “SILAC ratio, Kdelr2” value in series [6] (competitor 10 μM) is recorded as 1.2; in series [6] (competitor 25 μM), 1.2; in series [6] (competitor 50 μM), 1.3; in series [6] (competitor 100 μM) it was 1.8. Also, the “SILAC ratio, Cyp20a1” value is 1.2 in series [7] (competitor 10 μM), 1.3 in series [7] (competitor 25 μM), 1.2 in series [7] (competitor 50 μM) and 1.6 in series [7] (competitor 100 μM).
